Reference: patent publication US20230094952A1, “Method for Culturing Hematopoietic Stem Cells” (Sumitomo Pharma Co., Ltd., priority 2019, published 2023)

Legend:
[1] = tested on: human hematopoietic stem cells (CD34-positive cells); experiment: Confirmation test with human cells: 1-week culture of cord blood Lineage-negative CD34-positive cells, flow cytometry; assay type: cell-based; settings: 180 cells before culture, no UM171
Text: Collection of Human Cord Blood-Derived Mononuclear Cells Human cord blood-derived mononuclear cells were subjected to removal of erythrocytes and concentration treatment by using EasySep RBC Depletion Reagent (manufactured by […] Technologies Inc.) to obtain a cell population including hematopoietic stem cells.
First, a CD34-positive cell fraction was partially purified from the thus-obtained cell population including hematopoietic stem cells by using an EASYSep Human Cord Blood CD34 Positive Selection Kit II (manufactured by […] Technologies Inc.). The concentrated CD34-positive cells in a cell population enriched with hematopoietic stem cells and progenitor cells were stained with antibodies for the following cell surface markers.
Staining with the antibodies was performed at 4° C., and the cells were incubated for 30 minutes. For staining with the CD34 antibody, the cells were incubated for 90 minutes. Dead cell staining was performed with SYTOX Blue Dead Cell Stain (manufactured by Life Technologies) in accordance with a method recommended by the manufacturer.
Flow cytometry analysis and cell classification (cell sorting) were performed with a FACS Aria III cell sorter (manufactured by BD Biosciences), wherein fractions being Lineage-negative and CD34-positive were regarded as hematopoietic stem cells, and analysis was performed with the software FlowJo (manufactured by Tree Star, Inc.).
The cells after classification were seeded in a 96-well plate. […]
Each of artemether and the compounds of Example 1-23, Example 1-16, and Example 1-7 was prepared with the cell culture medium at nine final concentrations (0.001 μM, 0.003 μM, 0.01 μM, 0.03 μM, 0.1 μM, 0.3 μM, 1 μM, 3 μM, 10 μM), and added to the above human cells seeded after classification to a final volume of 200 μL/well to act thereon. UM171 (35 nM) was added to some of them to examine the presence or absence of synergistic effect. Thereafter, the cells were cultured in a CO2 incubator under conditions of 37° C. and 5% CO2 for 1 week. Viable cell counts and CD34-positive cell counts were analyzed.
After culture, the cells were stained with the antibodies for the surface markers CD34, CD11b, CD14, CD19, CD20, CD235ab, CD3, CD4, CD56, and CD8a, and the visible cell count and the ratio and post-growth cell count of a CD34 fraction (CD34^+, Lin^−) were measured by using a FACS Aria III cell sorter, and analyzed by using FlowJo (BD Biosciences). The CD34 fraction is a fraction including hematopoietic stem cells and multipotent progenitor cells as main components.

[2] = tested on: human hematopoietic stem cells (CD34-positive cells); experiment: Functional test with human cells: colony assay (CFU-GEMM) after culture; assay type: cell-based; settings: 1 week culture then 2 weeks MethoCult H4435, no UM171
Method: Each of artemether and the compounds of Example 1-23, Example 1-16, and Example 1-7 was prepared with the cell culture medium at nine final concentrations (0.001 μM, 0.003 μM, 0.01 μM, 0.03 μM, 0.1 μM, 0.3 μM, 1 μM, 3 μM, 10 μM), and added to the above human cells seeded after classification to a final volume of 200 μL/well to act thereon. UM171 (35 nM) was added to some of them to examine the presence or absence of synergistic effect. Thereafter, the cells were cultured in a CO2 incubator under conditions of 37° C. and 5% CO2 for 1 week, collected, and then seeded in a 96-well plate to place one CD34-positive cell in each well by using a FACS Aria III cell sorter, and cultured with a MethoCult H4435 ([…] Technologies Inc.) for 2 weeks. After culture, each well was photographed with an optical microscope (manufactured by KEYENCE CORPORATION), and the colony count was determined by visual observation and the form of each colony was determined by visual observation. Colony Formation Unit-Granulocytes, Erythroids, Macrophages, Megakaryocytes (CFU-GEMM), which are derived from myeloid progenitor cells, the erythroid burst colony-forming cells Burst Forming Unit-Erythroids (BFU-E), the granulocyte/macrophage colony-forming cells Colony Formation Unit-Granulocytes, Macrophages (CFU-GM) were determined on the basis of the forms of colonies, and the numbers were counted.

Row | SMILES | CD34-positive cell count ([1]; compound 0.001 μM) [cell] | Viable cell count ([1]; compound 0.001 μM) [cell] | CD34-positive cell count ([1]; compound 0.003 μM) [cell] | Viable cell count ([1]; compound 0.003 μM) [cell] | CD34-positive cell count ([1]; compound 0.01 μM) [cell] | Viable cell count ([1]; compound 0.01 μM) [cell] | CD34-positive cell count ([1]; compound 0.03 μM) [cell] | Viable cell count ([1]; compound 0.03 μM) [cell] | CD34-positive cell count ([1]; compound 0.1 μM) [cell] | Viable cell count ([1]; compound 0.1 μM) [cell] | CD34-positive cell count ([1]; compound 0.3 μM) [cell] | Viable cell count ([1]; compound 0.3 μM) [cell] | CD34-positive cell count ([1]; compound 1 μM) [cell] | Viable cell count ([1]; compound 1 μM) [cell] | CD34-positive cell count ([1]; compound 3 μM) [cell] | Viable cell count ([1]; compound 3 μM) [cell] | CD34-positive cell count ([1]; compound 10 μM) [cell] | Viable cell count ([1]; compound 10 μM) [cell] | Colony count (colony) after culture (CFU-GEMM) ([2]; compound 0.001 μM) [colony] | Colony count (colony) after culture (CFU-GEMM) ([2]; compound 0.003 μM) [colony] | further results
1 | C[C@H]1[C@H](c2ccco2)O[C@@H]2O[C@@]3(C)CC[C@H]4[C@H](C)CC[C@@H]1[C@@]24OO3 [Example 1-7, (3R,5aS,6R,8aS,9R,10R,12R,12aR)-10-(Furan-2-yl)-3,6,9-trimethyldecahydro-12H-3,12-epoxypyrano[4,3-j][1,2]benzodioxepine] | 175 | 1314 | 113 | 1013 | 150 | 1115 | 86 | 905 | 80 | 693 | 5 | 439 | 4 | 196 | 0 | 202 | 0 | 181 | 43.8 | 33.8 | Colony count (colony) after culture (CFU-GEMM) ([2]; compound 0.01 μM): 74.3 colony; Colony count (colony) after culture (CFU-GEMM) ([2]; compound 0.03 μM): 83.0 colony; Colony count (colony) after culture (CFU-GEMM) ([2]; compound 0.1 μM): 64.1 colony; Colony count (colony) after culture (CFU-GEMM) ([2]; compound 0.3 μM): 19.5 colony; Colony count (colony) after culture (CFU-GEMM) ([2]; compound 1 μM): 0.0 colony; Colony count (colony) after culture (CFU-GEMM) ([2]; compound 3 μM): 0.0 colony; Colony count (colony) after culture (CFU-GEMM) ([2]; compound 10 μM): 0.0 colony
2 | C[C@H]1[C@H](C(N)=O)O[C@@H]2O[C@@]3(C)CC[C@H]4[C@H](C)CC[C@@H]1[C@@]24OO3 [Example 1-16, (3R,5aS,6R,8aS,9R,10R,12R,12aR)-3,6,9-Trimethyldecahydro-12H-3,12-epoxypyrano[4,3-j][1,2]benzodioxepine-10-carboxamide] | 143 | 1306 | 173 | 1224 | 116 | 1301 | 130 | 590 | 92 | 811 | 32 | 549 | 13 | 368 | 13 | 300 | 3 | 264 | 130.6 | 112.2 | Colony count (colony) after culture (CFU-GEMM) ([2]; compound 0.01 μM): 65.1 colony; Colony count (colony) after culture (CFU-GEMM) ([2]; compound 0.03 μM): 68.8 colony; Colony count (colony) after culture (CFU-GEMM) ([2]; compound 0.1 μM): 40.6 colony; Colony count (colony) after culture (CFU-GEMM) ([2]; compound 0.3 μM): 22.9 colony; Colony count (colony) after culture (CFU-GEMM) ([2]; compound 1 μM): 15.7 colony; Colony count (colony) after culture (CFU-GEMM) ([2]; compound 3 μM): 10.0 colony; Colony count (colony) after culture (CFU-GEMM) ([2]; compound 10 μM): 8.8 colony
3 | COCCO[C@H]1O[C@@H]2O[C@@]3(C)CC[C@H]4[C@H](C)CC[C@@H]([C@H]1C)[C@@]24OO3 [Example 1-23, (3R,5aS,6R,8aS,9R,10S,12R,12aR)-10-(2-methoxyethoxy)-3,6,9-trimethyldecahydro-12H-3,12-epoxypyrano[4,3-j][1,2]benzodioxepine] | 156 | 1581 | 65 | 797 | 72 | 1152 | 63 | 901 | 28 | 537 | 19 | 462 | 16 | 480 | 15 | 269 | 0 | 333 | 171.3 | 39.9 | Colony count (colony) after culture (CFU-GEMM) ([2]; compound 0.01 μM): 76.8 colony; Colony count (colony) after culture (CFU-GEMM) ([2]; compound 0.03 μM): 22.5 colony; Colony count (colony) after culture (CFU-GEMM) ([2]; compound 0.1 μM): 13.4 colony; Colony count (colony) after culture (CFU-GEMM) ([2]; compound 0.3 μM): 3.9 colony; Colony count (colony) after culture (CFU-GEMM) ([2]; compound 1 μM): 12.0 colony; Colony count (colony) after culture (CFU-GEMM) ([2]; compound 3 μM): 4.5 colony; Colony count (colony) after culture (CFU-GEMM) ([2]; compound 10 μM): 0.0 colony
